Earlier results on 1 compound are cited in US20120316171A1, “Tryptophan Hydroxylase Inhibitors for the Treatment of Cancer” (priority 2009, published 2012).

Series [1] relates to carcinoid patients.
Series [2] concerns cholangiocarcinoma tumors. The settings on record: xenograft model of cholangiocarcinoma tumors; Alpini et al. 2008.
For series [3] the following is noted: in vivo.

In the case of `N[C@@H](Cc1ccc(Cl)cc1)C(=O)O` (racemic) [pCPA, para-chlorophenylalanine], the “adverse effects of administration” value in series [1] is recorded as “unwanted psychological effects”. Moreover, the “effect on symptoms of carcinoid syndrome (flushing, diarrhea, valvular damage)” value in series [1] (reported in the 1960's) is listed as “alleviated some of those symptoms”. In addition, the tumor growth entry in series [2] is “suppressed tumor growth”. Moreover, the blood-brain barrier passage result in series [3] was “crosses the blood-brain barrier”.
